Conditions: Crystal, Rate of evaporation

CC(C)(C)C(=O)/C=C(\[O-])C(C)(C)C.CC(C)(C)C(=O)/C=C(\[O-])C(C)(C)C.[Cu+2] [bis(2,2,6,6-tetramethyl-3,5-heptanedionato)copper(II)]
Conditions	vapor or sublimation pressure [kPa]
375 K	4e-05
385 K	7.2e-05
395 K	0.000151
404 K	0.000343
415 K	0.00072
425 K	0.001456
435 K	0.002373

— the NIST ThermoML archive (doi:10.1016/j.tca.2009.05.014)
